Results reported in patent publication US20140161767A1, “FOLLICLE-STIMULATING HORMONE (FSH)/LYTIC DOMAIN FUSION CONSTRUCTS AND METHODS OF MAKING AND USING SAME” (BOARD OF SUPERVISORS OF LOUISIANA STATE UNIVERSITY AND …, priority 2012, published 2014).

System: MDA-MB-435S.luc xenograft
Assay: Mouse xenograft model of breast cancer, LHRH fusion constructs
Format: in vivo, mice
Method: For LHRH fusion constructs, the mouse xenograft model for breast cancer was used. In brief, Nu/Nu female mice, outbred strain, age 5 weeks (Charles River) were injected subcutaneously with a MDA-MB-435S.luc/Matrigel suspension (1×10^6 cells). Treatment was started on day 21 after tumor cell injection and continued on day 26 and 29. The doses for weekly fusion construct injections were 2, 0.2 and 0.02 mg/kg body weight, given as a bolus single injection. All mice were necropsied 34 days after tumor cell injection—baseline values for tumor weights were obtained by sacrificing 8 mice at treatment start. Primary tumors, liver, kidney, pancreas, heart, lung, and spleen were collected and prepared for histological evaluation in formalin. Tumor weights were recorded at necropsy, part of the tumors were frozen at −80° C. for luciferase assay determination.
Characteristics of tumors at necropsy are summarized in FIG. 10: (A) tumor weight, (B) changes of tumor weights compared to baseline, (C) total number of live tumor cells, (D) changes of total live tumor cells compared to baseline, and (E) bodyweights at baseline and necropsy. Viability of tumor cells was determined at the end of the study when tumors were measured for luciferase activity. Treatment efficacy was calculated as difference between measurements at the beginning of treatment compared to the measurement at the end of study (FIGS. 10B and 10D).

KFAKFAKKFAKFAKKFAKQHWSYGLRPG [Phor18-LHRH]
Concentrations resulting in tumor weights similar to baseline (mouse, in vivo): 0.2 mg/kg
In vivo tumor efficacy compared to reference Phor21-βCG-ala (tumor weight, viable tumor cells) (mouse, in vivo): Equally effective
Tumor volume after 30 days compared to baseline (p<0.01): smallest tumor volumes
